Data published in patent US4215049A, “Antitumorigenic lactone derivative” (Nippon Kayaku Kabushiki Kaisha, priority 1977, dated 1980).
Values after ≈ are worked out from the molar mass of the structure shown. Blank lines part the entries; values can stand above or below the molecule they belong to.

How the values were obtained:
HeLa S3 cells = test: Inhibitory effect against growth of HeLa S3 cells (in vitro); format: cell-based; conditions: for IC50: 72 h, HeLa S3 cells, read-out: ID50 (the source's name); for inhibitory effect against growth of cancer (HeLa) cells (in words): low concentration
Description: The roots (0.3 kg by half-dry weight), stalks (1.6 kg by half-dry weight) and leaves (2.1 kg by half-dry weight) were ground and extracted respectively with methanol. Each liquid extract was filtered and the filtrate was concentrated under reduced pressure to obtain an oily residue containing the object compounds.
(Note) The inhibitory effect against growth of the HeLa cells was determined in the manner described below.
The HeLa S3 cells were spread on 6 cm-diameter plastic laboratory plates in the amount of 0.7×10^5 cells/plate and cultured by using an MEM medium containing 60 μg/ml of kanamycin and 10% calf serum. 2 days later, the medium was replaced with one containing the compounds of this invention. The cell population at that time was 1.58×10^5 cells/plat. After addition of the compounds, the cells were cultured for three days, and then, after removing the medium, the culture was washed with a physiological saline solution, treated with 0.05% trypsin at room temperature for about 15 minutes, and then pipetted and dispersed. The number of surviving cells was counted by a […], and percent inhibition was measured by counting the number of the living cells in the control section to determine ID50. [formula]

[1] = tested on: Ehrlich ascites cancer cells; test: Life-prolonging effect for mice suffering from Ehrlich ascites cancer; format: in vivo, mice (ICR/JCL); conditions: for Life prolongation rate: average survival days, control group indexed as 100; for life-prolonging effect for mice with Ehrlich ascites cancer (in words): in comparison with the control mice
Description: The mice of ICR/JCL species (.male., 5-week-old, 5 mice per group) were intraperitoneally inoculated with 2,000,000 pieces of Ehrlich ascites cancer cells, and the compounds of this invention were administered, starting 2 hours after inoculation, in the dosages shown in Table 5 below once a day for a total period of 10 days.
the drug treated groups as calculated with the average number of survival
days of the control group being indexed as 100.

[2] = 7.50 mg/kg once a day for 10 days
[3] = 15.0 mg/kg once a day for 10 days

IC50 (HeLa S3 cells; Homo sapiens, 3 days): 1.4 mg/L (≈ 3.33 µM)
SMILES: C=C1C(=O)OC2C=C(C)C(OC(C)=O)CC=C(C)CC(OC(=O)C(=CCO)CO)C12 (stereo not shown) [Compound I]
inhibition at 1 µg/mL (HeLa S3 cells; Homo sapiens, HeLa S3, 72 h, 1 μg/ml, 3 days, read-out: Percent inhibition): 29.4%
inhibition at 2 µg/mL (HeLa S3 cells; Homo sapiens, HeLa S3, 72 h, 2 μg/ml, 3 days, read-out: Percent inhibition): 74.9%
inhibition at 4 µg/mL (HeLa S3 cells; Homo sapiens, HeLa S3, 72 h, 4 μg/ml, 3 days, read-out: Percent inhibition): 100%
inhibitory effect against growth of cancer (HeLa) cells (in words) (HeLa S3 cells): high inhibitory effect against growth of the cancer cells
Life prolongation rate [1, 2]: 253
Life prolongation rate [1, 3]: 232
life-prolonging effect for mice with Ehrlich ascites cancer (in words) [1]: prominent life-prolonging effect

SMILES: C=C1C(=O)OC2C=C(C)C(OC(C)=O)CC=C(C)CC(O)C12 (stereo not shown) [III]
Life prolongation rate [1, 2]: 95
Life prolongation rate [1, 3]: 108
effect of compound III compared with compounds I and II (in words) ([1]; mouse, in vivo): not so conspicuous in effect as the compounds I and II

IC50 (HeLa S3 cells; Homo sapiens, 3 days): 0.62 mg/L (≈ 1.53 µM)
SMILES: C=C1C(=O)OC2C=C(C)C(OC(C)=O)CC=C(C)CC(OC(=O)C(C)=CCO)C12 (stereo not shown) [II]
inhibition at 0.375 µg/mL (HeLa S3 cells; Homo sapiens, HeLa S3, 72 h, 0.375 μg/ml, 3 days, read-out: Percent inhibition): 28.4%
inhibition at 0.75 µg/mL (HeLa S3 cells; Homo sapiens, HeLa S3, 72 h, 0.75 μg/ml, 3 days, read-out: Percent inhibition): 57%
inhibition at 1.5 µg/mL (HeLa S3 cells; Homo sapiens, HeLa S3, 72 h, 1.5 μg/ml, 3 days, read-out: Percent inhibition): 100%
inhibitory effect against growth of cancer (HeLa) cells (in words) (HeLa S3 cells): high inhibitory effect against growth of the cancer cells
Life prolongation rate [1, 2]: 159
Life prolongation rate [1, 3]: 173
life-prolonging effect for mice with Ehrlich ascites cancer (in words) [1]: prominent life-prolonging effect
